Source: US8383608B2, “Imidazolidine compounds as androgen receptor modulators” (Dart Therapeutics LLC, priority 2008, dated 2013)
Like-named read-outs stand apart in the source and are kept apart here.

Key:
[1] = biological target: T1, human androgen receptor (hAR) (Homo sapiens, UniProt P10275); assay: Functional response (transactivation) test in HALP2 cells (HeLa stably expressing hAR and ARE-luciferase reporter); assay type: cell-based; conditions: HALP2 cells; for Emax: HeLa, maximal activation by the compound compared with DHT alone (100%), read-out: % effect relative to DHT (100%)
T1 construct: expressed in transfected cells
T1 sequence (P10275 1-920): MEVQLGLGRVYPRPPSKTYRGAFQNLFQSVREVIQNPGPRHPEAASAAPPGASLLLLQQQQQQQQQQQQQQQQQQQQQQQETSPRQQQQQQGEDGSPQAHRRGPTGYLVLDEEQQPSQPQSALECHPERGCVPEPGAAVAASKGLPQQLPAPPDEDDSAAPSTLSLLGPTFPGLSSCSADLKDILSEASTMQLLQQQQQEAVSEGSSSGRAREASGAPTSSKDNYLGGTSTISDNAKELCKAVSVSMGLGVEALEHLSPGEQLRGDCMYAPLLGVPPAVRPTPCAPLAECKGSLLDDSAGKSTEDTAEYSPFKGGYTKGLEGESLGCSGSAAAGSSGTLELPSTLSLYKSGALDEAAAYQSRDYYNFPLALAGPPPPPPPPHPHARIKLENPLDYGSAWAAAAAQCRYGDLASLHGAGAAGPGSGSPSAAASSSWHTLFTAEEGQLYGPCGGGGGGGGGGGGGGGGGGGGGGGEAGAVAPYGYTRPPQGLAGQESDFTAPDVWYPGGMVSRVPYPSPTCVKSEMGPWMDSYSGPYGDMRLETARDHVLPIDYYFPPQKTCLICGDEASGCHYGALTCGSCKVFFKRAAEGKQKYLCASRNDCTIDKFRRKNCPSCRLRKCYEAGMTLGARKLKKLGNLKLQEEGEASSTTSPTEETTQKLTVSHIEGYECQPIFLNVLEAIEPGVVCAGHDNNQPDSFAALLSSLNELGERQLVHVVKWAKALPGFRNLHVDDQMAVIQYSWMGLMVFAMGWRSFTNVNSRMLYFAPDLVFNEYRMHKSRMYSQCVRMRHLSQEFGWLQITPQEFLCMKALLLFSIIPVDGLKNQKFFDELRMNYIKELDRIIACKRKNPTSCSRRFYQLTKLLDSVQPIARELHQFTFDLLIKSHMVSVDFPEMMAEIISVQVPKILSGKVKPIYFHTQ
From the text: This test constitutes a method of identifying pure or partial agonists which mimic the effects of natural hormones, such as DHT (dihydrotestosterone) in the present case or, on the other hand, antagonists which inhibit them.
For this transactivation test, plasmids encoding a reporter gene and the human androgen receptor (hAR) are introduced together by transfection into the HeLa cell line. The reporter plasmid contains luciferase cDNA under the control of the AREs contained in the promoter sequences of the probasin gene (3xpbAREminicoll-luciferase/pGL3-puro). The expression of the reporter gene constitutes an indication of the transcriptional activity of hAR. It also encodes a protein allowing the cells expressing it to resist a treatment with puromycin. The plasmid encoding hAR contains the cDNA of hAR under the control of the Cytomegalovirus (CMV) promoter. It also encodes a protein allowing the cells expressing it to resist a treatment with neomycin. The treatment of cells with increasing amounts of potentially agonistic compounds will increase the expression of the reporter gene. To detect antagonists, on the other hand, increasing doses of test compounds are tested in the presence of […] of DHT. The expression of the reporter gene, which is constant for each dose of DHT, decreases when the concentration of the test compounds increases.
The functional response test is conducted on 96-well plates. The HALP2 cells are seeded (20,000 cells per well) in culture medium (DMEM with phenol red, 1% de Pen-Strep, 1% of non-essential amino acids, 10% of fetal bovine serum, 400 μg/mL Geneticin and 0.150 puromycin) on day 1. After 24 hours incubating at 37° C., 5% CO2, high humidity (day 2) the medium is removed and refreshed with test medium (DMEM without phenol red supplemented, 1% de Pen-Strep, 1% of non-essential amino acids and 5% of desteroidised foetal bovine serum). After another 24 hours incubating at 37° C., 5% CO2, high humidity (day 3), the medium is renewed once more before the phase of stimulation.
The cells are placed in contact with the compounds for 24 hours at 37° C., 5% CO2, high humidity. On day 4 the medium is then removed and the luciferase activity reading reagent is placed in contact with the cells in accordance with the manufacturer's instructions (SteadyLite, Perkin-Elmer). The luminescence produced is detected on an Envision reader (Perkin-Elmer). […]
The determination of the relative agonism/antagonism of a compound is obtained by comparing the maximal activation obtained with said compound and the activation obtained with DHT alone (100%).

[2] = Determination of absolute bioavailability (restricted PK profile, oral and intravenous); assay type: in vivo; conditions: male, Sprague-Dawley, rat, plasma, po, 10 mg/kg, absolute bioavailability (F), male Sprague Dawley rats, oral 10 mg/kg AUC(0-6 h) vs intravenous 3 mg/kg AUC(0-3 h); read-out: Bioavailability
Description: To screen rapidly imidazolidines derivatives based on their absolute bioavailabity, restricted pharmacokinetic profile with only fours sampling time points after oral and intravenous route is investigated in Sprague Dawley rats as follows: each test compound is dosed orally (10 mg/kg) and intravenously (3 mg/kg) to groups of 3 male Sprague Dawley rats. Oral doses are administered as solution in EtOH/PEG400/H2O (1/79/20; v/v) by esophageal gavage (2 mg/mL; 5 mL/kg) and intravenous dose is given as solution in DMSO/PEG400/H2O (1/65/34; v/v) as a bolus in the tail vein (3 mg/mL; 1 mL/kg). Before oral dosing, animals are deprived of food (water ad libitum) for at least 16 hours before the start of the study and 6 hours after administration.
Blood is collected at the retro-orbital sinus into polypropylene tubes (Li-heparinate) at +4° C. at the following sampling-times: 0.083, 0.25, 1 and 3 h after intravenous injection and 0.25, 1, 3 and 6 hours after oral dosing. Three (3) animals are sampled per time-point; each animal being sampled four times. After centrifugation at 5000 rpm for 10 min at +4° C., plasma is collected into polypropylene tubes and kept frozen at −20° C. pending assays. Plasma samples are assayed by a LC-MS/MS method with a lower limit of quantification of 1 to 10 ng/mL depending on the compound (volume of plasma: 100 μL).
A LC-MS/MS method for quantification in heparinized plasma was developed for each test compound. Sample preparation consists of a precipitation of plasma proteins with methanol and filtration by centrifugation of supernatant on Captiva deep-well 96 0.2 μm filter plates. Water was added to methanol supernatant phase prior to analysis by liquid chromatography (Pursuit 5 C18 20×2.0 mm VARIAN, 2 μL loop, gradient Water/Methanol (90/10 to 0/100) over 1.7 min) with turboionspray tandem mass spectrometry (API4000) in negative mode using multiple reaction monitoring. The method includes 8 standard and 3 quality control levels with lower limit of quantification corresponding to first standard level.
Exposures are determined using a non compartmental model (WinNonLin 2.1) and the absolute bioavailability (F) is calculated as follows: [AUC(0-6 h) oral*3 mg/kg]/AUC(0-3 h) IV 10 mg/kg] and expressed in percentage.

[3] = tested on: castrated immature young rats; assay: Adapted model of Hershberger's test; assay type: in vivo, Sprague Dawley rats; conditions: Rattus norvegicus, po, 96 h, ORX control = 0%, SHAM control = 100%, per os daily for 4 days, dose tested 30 mg/kg
[4] = levator ani weight, read-out: Anabolic activity %
[5] = ventral prostate weight, read-out: Androgenic activity % (Prostate)

SMILES | Emax [1] [%] | EC50 ([1]; agonism: concentration inducing 50% of the maximum agonistic effect of the tested compound, 24 hours, read-out: EC50) [nM] | bioavailability [2] [%] | response vs control in vivo at 30 mg/kg [3, 4] [%] | response vs control in vivo at 30 mg/kg [3, 5] [%]
CN1C(=O)N(c2ccc(C#N)c(C(F)(F)F)c2)C(=O)C1(CO)c1ccc(F)cc1 (centres unmarked) [Example 6, 4-[2,5-Dioxo-4-(4-fluorophenyl)-4-(hydroxymethyl)-3-methylimidazolidin-1-yl]-2-trifluoromethylbenzonitrile] | 21 to 40 | 11 to 100 | 50 to 90 | 25 to 50 | 0.5 to 25
CN1C(=O)N(c2ccc(C#N)c(C(F)(F)F)c2)C(=O)[C@]1(CO)c1ccccc1 [Example 11, (R)-4-[2,5-Dioxo-4-(hydroxymethyl)-3-methyl-4-phenylimidazolidin-1-yl]-2-trifluoromethylbenzonitrile] | 0 to 5 |  |  | 50 to 75 | 0.5 to 25
